Target: T1, Androgen receptor (AR) (Homo sapiens, UniProt P10275, T878A)
T1 construct: 5.5×10^5 LNCap cells were injected into each well of a 6-well plate; endogenous in cells; host or cells: LNCaP
T1 sequence (P10275 1-920 T878A): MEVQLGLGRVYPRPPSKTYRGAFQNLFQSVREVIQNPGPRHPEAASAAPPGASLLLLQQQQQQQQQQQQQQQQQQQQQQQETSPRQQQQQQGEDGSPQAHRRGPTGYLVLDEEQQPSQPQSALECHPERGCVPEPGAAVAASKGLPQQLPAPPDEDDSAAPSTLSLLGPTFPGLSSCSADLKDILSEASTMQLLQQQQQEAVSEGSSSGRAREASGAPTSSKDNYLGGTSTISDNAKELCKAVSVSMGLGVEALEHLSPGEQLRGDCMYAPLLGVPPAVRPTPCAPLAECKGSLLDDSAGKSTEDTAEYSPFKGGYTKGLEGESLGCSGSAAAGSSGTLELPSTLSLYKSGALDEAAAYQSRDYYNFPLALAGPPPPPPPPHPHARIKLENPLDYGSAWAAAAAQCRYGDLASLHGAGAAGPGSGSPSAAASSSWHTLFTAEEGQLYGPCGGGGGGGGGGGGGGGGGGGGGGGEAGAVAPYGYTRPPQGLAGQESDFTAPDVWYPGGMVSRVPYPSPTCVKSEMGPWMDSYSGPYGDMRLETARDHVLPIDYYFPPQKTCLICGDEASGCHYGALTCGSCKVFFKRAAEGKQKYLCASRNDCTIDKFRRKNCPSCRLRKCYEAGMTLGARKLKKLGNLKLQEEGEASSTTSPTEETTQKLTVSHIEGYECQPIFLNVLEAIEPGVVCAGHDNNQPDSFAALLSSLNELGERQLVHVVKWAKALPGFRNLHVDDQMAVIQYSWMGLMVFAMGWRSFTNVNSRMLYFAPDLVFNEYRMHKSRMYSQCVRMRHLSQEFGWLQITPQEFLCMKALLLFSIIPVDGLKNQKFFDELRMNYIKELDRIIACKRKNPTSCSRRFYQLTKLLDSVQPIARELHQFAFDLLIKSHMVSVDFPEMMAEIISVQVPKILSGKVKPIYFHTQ
Assay: Assessment of AR proteolytic activity (Western blotting of LNCap cell lysates)
Assay type: cell-based
Conditions: 24 hours of treatment, Western blotting quantified with Image J
Method: Assessment of AR Proteolytic Activity
Androgen receptor (AR) proteolytic activity of the compound according to the present invention was evaluated as follows: Specifically, 5.5×10^5 LNCap cells were injected into each well of a 6-well plate. […] After 24 hours of treatment, cells were collected and lysed using RIPA Lysis buffer (50 mM Tris-HCl, pH7.5, 150 mM NaCl, 1% Triton X-100, 2 mM EDTA, 0.1% SDS, 0.5% sodium deoxycholate and protease inhibitor cocktail) to make cell lysates. Western blotting was performed, and the results were quantified using Image J program.

SMILES | Degradation (1 μM treated in LNCaP, % AR remaining) [%]
CC1(C)C(NC(=O)c2ccc(N3CCC4(CC3)CN(CC3CCN(c5ccc6c(=O)n(C7CCC(=O)NC7=O)nnc6c5)CC3)C4)nc2)C(C)(C)C1Oc1ccc(C#N)c(Cl)c1 (stereo not shown) [Example 173, N-((1r,3r)-3-(3-chloro-4-cyanophenoxy)-2,2,4,4-tetramethylcyclobutyl)-6-(2-((1-(3-(2,6-dioxopiperidin-3-yl)-4-oxo-3,4-dihydrobenzo[d][1,2,3]triazin-7-yl)piperidin-4-yl)methyl)-2,7-diazaspiro[3.5]nonan-7-yl)nicotinamide] | 9
CC1(C)C(NC(=O)c2ccc(C#CCN3CC4(CCN(c5ccc6nnn(C7CCC(=O)NC7=O)c(=O)c6c5)CC4)C3)nc2)C(C)(C)C1Oc1ccc(C#N)c(Cl)c1 (stereo not shown) [Example 180, N-((1r,3r)-3-(3-chloro-4-cyanophenoxy)-2,2,4,4-tetramethylcyclobutyl)-6-(3-(7-(3-(2,6-dioxopiperidin-3-yl)-4-oxo-3,4-dihydrobenzo[d][1,2,3]triazin-6-yl)-2,7-diazaspiro[3.5]nonan-2-yl)prop-1-yn-1-yl)nicotinamide] | 18
CC1(C)C(NC(=O)c2ccc(N3CCC(CN4CCN(C5CCN(c6ccc7nnn(C8CCC(=O)NC8=O)c(=O)c7c6)CC5)CC4)CC3)nc2)C(C)(C)C1Oc1ccc(C#N)c(Cl)c1 (stereo not shown) [Example 194, N-((1r,3r)-3-(3-chloro-4-cyanophenoxy)-2,2,4,4-tetramethylcyclobutyl)-6-(4-((4-(1-(3-(2,6-dioxopiperidin-3-yl)-4-oxo-3,4-dihydrobenzo[d][1,2,3]triazin-6-yl)piperidin-4-yl)piperazin-1-yl)methyl)piperidin-1-yl)nicotinamide] | 9
CC1(C)C(NC(=O)c2ccc(C#CC3CCN(CC4CCN(c5ccc6nnn(C7CCC(=O)NC7=O)c(=O)c6c5)CC4)CC3)nc2)C(C)(C)C1Oc1ccc(C#N)c(Cl)c1 (stereo not shown) [Example 196, N-((1r,3r)-3-(3-chloro-4-cyanophenoxy)-2,2,4,4-tetramethylcyclobutyl)-6-((1-((1-(3-(2,6-dioxopiperidin-3-yl)-4-oxo-3,4-dihydrobenzo[d][1,2,3]triazin-6-yl)piperidin-4-yl)methyl)piperidin-4-yl)ethynyl)nicotinamide] | 4
CC1(C)[C@H](NC(=O)c2ccc(N3CCC(CN4CCC5(CC4)CN(c4ccc6c(=O)n(C7CCC(=O)NC7=O)nnc6c4)C5)CC3)nc2)C(C)(C)[C@H]1Oc1ccc(C#N)c(Cl)c1 (stereo partly shown) [Example 171, N-((1r,3r)-3-(3-chloro-4-cyanophenoxy)-2,2,4,4-tetramethylcyclobutyl)-6-(4-((2-(3-(2,6-dioxopiperidin-3-yl)-4-oxo-3,4-dihydrobenzo[d][1,2,3]triazin-7-yl)-2,7-diazaspiro[3.5]nonan-7-yl)methyl)piperidin-1-yl)nicotinamide] | 11
CC1(C)C(NC(=O)c2ccc(N3CCC(CN4CCN(C5CCN(c6ccc7c(=O)n(C8CCC(=O)NC8=O)nnc7c6)CC5)CC4)CC3)nc2)C(C)(C)C1Oc1ccc(C#N)c(Cl)c1 (stereo not shown) [Example 193, N-((1r,3r)-3-(3-chloro-4-cyanophenoxy)-2,2,4,4-tetramethylcyclobutyl)-6-(4-((4-(1-(3-(2,6-dioxopiperidin-3-yl)-4-oxo-3,4-dihydrobenzo[d][1,2,3]triazin-7-yl)piperidin-4-yl)piperazin-1-yl)methyl)piperidin-1-yl)nicotinamide] | 12
CC1(C)C(NC(=O)c2ccc(N3CCC4(CC3)CN(CC3CN(c5ccc6c(=O)n(C7CCC(=O)NC7=O)nnc6c5)C3)C4)nc2)C(C)(C)C1Oc1ccc(C#N)c(Cl)c1 (stereo not shown) [Example 175, N-((1r,3r)-3-(3-chloro-4-cyanophenoxy)-2,2,4,4-tetramethylcyclobutyl)-6-(2-((1-(3-(2,6-dioxopiperidin-3-yl)-4-oxo-3,4-dihydrobenzo[d][1,2,3]triazin-7-yl)azetidin-3-yl)methyl)-2,7-diazaspiro[3.5]nonan-7-yl)nicotinamide] | 10
CC1(C)C(NC(=O)c2ccc(N3CCC4(CC3)CN(CC3CCN(c5ccc6nnn(C7CCC(=O)NC7=O)c(=O)c6c5)CC3)C4)nc2)C(C)(C)C1Oc1ccc(C#N)c(Cl)c1 (stereo not shown) [Example 174, N-((1r,3r)-3-(3-chloro-4-cyanophenoxy)-2,2,4,4-tetramethylcyclobutyl)-6-(2-((1-(3-(2,6-dioxopiperidin-3-yl)-4-oxo-3,4-dihydrobenzo[d][1,2,3]triazin-6-yl)piperidin-4-yl)methyl)-2,7-diazaspiro[3.5]nonan-7-yl)nicotinamide] | 15
CC1(C)C(NC(=O)c2ccc(C#CCN3CCN(c4ccc5nnn(C6CCC(=O)NC6=O)c(=O)c5c4)CC3)nc2)C(C)(C)C1Oc1ccc(C#N)c(Cl)c1 (stereo not shown) [Example 178, N-((1r,3r)-3-(3-chloro-4-cyanophenoxy)-2,2,4,4-tetramethylcyclobutyl)-6-(3-(4-(3-(2,6-dioxopiperidin-3-yl)-4-oxo-3,4-dihydrobenzo[d][1,2,3]triazin-6-yl)piperazin-1-yl)prop-1-yn-1-yl)nicotinamide] | 23
CC1(C)C(NC(=O)c2ccc(N3CCN(CCCCCOc4ccc5nnn(C6CCC(=O)NC6=O)c(=O)c5c4)CC3)nc2)C(C)(C)C1Oc1ccc(C#N)c(Cl)c1 (stereo not shown) [Example 163, N-((1r,3r)-3-(3-chloro-4-cyanophenoxy)-2,2,4,4-tetramethylcyclobutyl)-6-(4-(5-((3-(2,6-dioxopiperidin-3-yl)-4-oxo-3,4-dihydrobenzo[d][1,2,3]triazin-6-yl)oxy)pentyl)piperazin-1-yl)nicotinamide] | 10
CC1(C)C(NC(=O)c2ccc(N3CCC(CN4CCN(c5ccc6c(=O)n(C7CCC(=O)NC7=O)nnc6c5)CC4)CC3)cc2)C(C)(C)C1Oc1ccc(C#N)c(Cl)c1 (stereo not shown) [Example 165, N-((1r,3r)-3-(3-chloro-4-cyanophenoxy)-2,2,4,4-tetramethylcyclobutyl)-4-(4-((4-(3-(2,6-dioxopiperidin-3-yl)-4-oxo-3,4-dihydrobenzo[d][1,2,3]triazin-7-yl)piperazin-1-yl)methyl)piperidin-1-yl)benzamide] | 8
CC1(C)C(NC(=O)c2ccc(C#CCN3CCC4(CC3)CN(c3ccc5nnn(C6CCC(=O)NC6=O)c(=O)c5c3)C4)nc2)C(C)(C)C1Oc1ccc(C#N)c(Cl)c1 (stereo not shown) [Example 182, N-((1r,3r)-3-(3-chloro-4-cyanophenoxy)-2,2,4,4-tetramethylcyclobutyl)-6-(3-(2-(3-(2,6-dioxopiperidin-3-yl)-4-oxo-3,4-dihydrobenzo[d][1,2,3]triazin-6-yl)-2,7-diazaspiro[3.5]nonan-7-yl)prop-1-yn-1-yl)nicotinamide] | 16
CC1(C)[C@H](NC(=O)c2ccc(N3CC[C@H](CN4CC5(C4)CN(c4ccc6c(=O)n(C7CCC(=O)NC7=O)nnc6c4)C5)C3)nc2)C(C)(C)[C@H]1Oc1ccc(C#N)c(Cl)c1 (stereo partly drawn) [Example 190, N-((1r,3R)-3-(3-chloro-4-cyanophenoxy)-2,2,4,4-tetramethylcyclobutyl)-6-((3R)-3-((6-(3-(2,6-dioxopiperidin-3-yl)-4-oxo-3,4-dihydrobenzo[d][1,2,3]triazin-7-yl)-2,6-diazaspiro[3.3]heptan-2-yl)methyl)pyrrolidin-1-yl)nicotinamide] | 11
